The values that follow come from patent publication US20220265591A1, “USE OF AN OSMOLYTE IN MANUFACTURE OF A MEDICAMENT FOR TREATMENT OF OCULAR DISORDERS” (SINGAPORE HEALTH SERVICES PTELTD, priority 2019, published 2022).

Assay [1] addresses T1, preformed amyloid fibrils from TGFBIp611-633 G623R peptide (Homo sapiens, UniProt Q15582, G623R).
T1 construct: The 23-amino acid long peptide (TGFBIp 611-633 c.623 G>R) from the 4th FAS1 domain; purchased Synpeptide Co Ltd, Shanghai, China; host or cells: synthetic peptide
Briefly: ThT fluorescence microscopy, disaggregation of preformed amyloid fibrils. The conditions noted are these: 200 mM and 320 mM. The procedure: The ability of osmolytes to disaggregate the preformed amyloid fibrils were investigated further by fluorescence microscopy after ThT staining. The peptide samples collected at the various time points above were incubated at a ratio of 1:1 ratio of thpeptide solution to ThT in the dark for 30 minutes to obtain solutions for fluorescence microscopy. 25 μl of the solutions were taken on to slides with coverslips and visualized under a fluorescent microscope. Three representative images from each time point under a given condition was used for the quantitation of fluorescence. Image J software was used to quantify the signal from the images and the values for each time point per osmolyte treatment were normalised to the untreated sample at that particular time point.
The inhibition effect of taurine on the preformed amyloid fibrils was investigated further by fluorescence microscopy after ThT staining. The samples collected at the various time points above were incubated ThT at a ratio of 1:1 ratio in the dark for 30 minutes to obtain solutions for fluorescence microscopy. 25 μl of the solutions were taken on to slides with coverslips and visualized under a fluorescent microscope.

Assay [2] has as its target T2, TGFBIp611-633 N622K peptide (Homo sapiens, UniProt Q15582, N622K).
T2 construct: The TGFBIp^611-633 N622K peptides were treated with 200 mM and 320 mM of taurine; purchased Synpeptide Co Ltd, Shanghai, China; host or cells: synthetic peptide
Briefly: ThT fluorescence assay, inhibition of amyloid fibrillation. In kind it is biochemical. The conditions noted are these: TGFBIp-N622K, final time point. The procedure:
The TGFBIp^611-633 G623R peptides were treated with 200 mM and 320 mM of taurine for up to 72 hours, respectively, the results of which are illustrated in FIG. 11. The TGFBIp^611-633 N622K peptides were treated with 200 mM and 320 mM of taurine for up to 240 hours, respectively, the results of which are illustrated in FIG. 12. The peptides incubated with PBS were used as controls.
The peptide samples were collected at 24 h, 48 h and 72 h after treatment for TGFBIp^611-633 G623R peptides and at 120 h, 144 h and […] after treatment for the TGFBIp^611-633 N622K peptides. The samples were then treated with 30 μM ThT in PBS buffer at pH 5.5 in a 96-well microplate for ThT fluorescence assay. The microplate was excited at 445 nm and the resulting emission fluorescence at 485 nm was measured using a microplate reader.

Assay [3] has as its target T2, TGFBIp611-633 N622K peptide. Briefly: Circular Dichroism assay, inhibition of amyloid fibrillation. The assay is classed as biochemical. The conditions noted are these: TGFBIp-N622K, final time point, read-out: % Inhibition at final time point, CD. As for the experimental part:
Circular Dichroism (CD) spectroscopy was performed to study the changes in the secondary structure of the peptides. The TGFBIp^611-633 G623R peptides were treated with 200 mM and 320 mM of taurine in PBS buffer at pH 7.0 for 24 h, 48 h and 72 h, respectively. While the TGFBIp^611-633 N622K peptides were treated with 200 mM and 320 mM of taurine in PBS buffer at pH 7.0 for 72 h, 96 h, 120 h, 144 h, 192 h, 216 h, and 240 h, respectively. The treatment solutions were studied by far UV-CD assay.

T2 sequence (Q15582 611-633 N622K limits assumed): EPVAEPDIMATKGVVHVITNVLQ
T1 sequence (Q15582 611-633 G623R limits assumed): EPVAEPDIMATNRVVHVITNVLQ

Regarding `NCCS(=O)(=O)O` [Taurine, taurine], the “fluorescent intensity under microscope, preformed fibrils” value in assay [1] was “reduction in fluorescent intensity”. Also, the inhibition at 200000 µM in assay [2] (200 mM) stood at 37%; in assay [3] (200 mM), 39%. The inhibition at 320000 µM came to 76% in assay [2] (320 mM) and 66% in assay [3] (320 mM).
